According to ChEMBL document CHEMBL4257492, “Discovery of 2-aminoimidazole and 2-amino imidazolyl-thiazoles as non-xanthine human adenosine A3 receptor antagonists: SAR and molecular modeling studies” (Medchemcomm, 2018):
Calls of active or inactive are those of the source. No cut-off for these calls is given here.

Key:
[1] = biological target: T1, Adenosine receptor A2b (Homo sapiens, UniProt P29275); assay: Antagonist activity at recombinant human A2B receptor expressed in CHO cell membranes assessed as inhibition of NECA-stimulated adenylyl cyclase activity; assay type: functional, cell-based
T1 sequence (P29275 whole entry): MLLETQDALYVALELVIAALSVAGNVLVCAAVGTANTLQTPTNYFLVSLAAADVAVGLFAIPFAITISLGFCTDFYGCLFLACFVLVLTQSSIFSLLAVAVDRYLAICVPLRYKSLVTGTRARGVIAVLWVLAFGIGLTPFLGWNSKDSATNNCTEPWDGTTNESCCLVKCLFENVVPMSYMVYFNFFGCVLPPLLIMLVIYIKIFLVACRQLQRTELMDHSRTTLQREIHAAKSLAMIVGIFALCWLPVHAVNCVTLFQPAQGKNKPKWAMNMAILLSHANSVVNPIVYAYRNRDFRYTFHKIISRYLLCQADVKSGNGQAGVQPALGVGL

[2] = biological target: T2, Adenosine receptor A1 (Homo sapiens, UniProt P30542); assay: (§1) Displacement of [3H]CCPA from recombinant human A1 receptor expressed in CHO cell membranes
T2 sequence (P30542 whole entry): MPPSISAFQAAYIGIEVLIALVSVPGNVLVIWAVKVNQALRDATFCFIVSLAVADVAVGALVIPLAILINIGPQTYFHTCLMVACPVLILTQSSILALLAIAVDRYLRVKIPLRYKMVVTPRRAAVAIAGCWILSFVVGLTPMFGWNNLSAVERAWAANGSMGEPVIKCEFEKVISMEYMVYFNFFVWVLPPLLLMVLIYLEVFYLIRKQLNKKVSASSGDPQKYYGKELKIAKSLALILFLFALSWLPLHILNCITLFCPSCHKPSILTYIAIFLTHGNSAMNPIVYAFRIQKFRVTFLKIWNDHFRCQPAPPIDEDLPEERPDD

[3] = biological target: T3, Adenosine receptor A3 (Homo sapiens, UniProt P0DMS8); assay: (§2) Displacement of [3H]HEMADO from recombinant human A3 receptor expressed in CHO cell membranes
T3 sequence (P0DMS8 whole entry): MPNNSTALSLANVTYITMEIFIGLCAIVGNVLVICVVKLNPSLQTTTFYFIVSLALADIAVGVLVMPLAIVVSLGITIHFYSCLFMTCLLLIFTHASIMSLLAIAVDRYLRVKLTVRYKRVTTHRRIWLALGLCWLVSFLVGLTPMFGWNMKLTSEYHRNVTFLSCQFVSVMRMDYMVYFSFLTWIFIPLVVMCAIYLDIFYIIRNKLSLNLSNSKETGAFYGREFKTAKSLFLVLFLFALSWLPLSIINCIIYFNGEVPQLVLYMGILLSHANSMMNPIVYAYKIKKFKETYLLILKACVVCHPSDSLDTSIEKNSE

[4] = biological target: Adenosine receptor A2a (Homo sapiens, UniProt P29274); assay: Displacement of [3H]NECA from recombinant human A2A receptor expressed in CHO cell membranes
Chain of Adenosine receptor A2a (P29274 whole entry): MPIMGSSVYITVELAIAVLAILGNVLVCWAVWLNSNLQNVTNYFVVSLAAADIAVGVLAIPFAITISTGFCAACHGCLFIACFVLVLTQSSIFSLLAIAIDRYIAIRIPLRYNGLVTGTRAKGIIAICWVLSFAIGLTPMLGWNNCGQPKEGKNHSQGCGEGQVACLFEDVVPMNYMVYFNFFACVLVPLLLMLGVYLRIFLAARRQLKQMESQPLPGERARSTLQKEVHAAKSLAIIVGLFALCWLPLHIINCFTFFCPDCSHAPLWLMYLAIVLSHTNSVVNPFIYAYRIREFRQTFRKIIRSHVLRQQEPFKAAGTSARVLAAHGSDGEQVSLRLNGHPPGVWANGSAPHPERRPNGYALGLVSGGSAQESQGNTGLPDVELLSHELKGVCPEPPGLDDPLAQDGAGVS

[5] = biological target: T4, Adenosine receptor A2b (Homo sapiens) (UniProt P29275); assay: Antagonist activity at recombinant human A2B receptor expressed in CHO cell membranes assessed as inhibition of NECA-stimulated adenylyl cyclase activity up to 30 uM; assay type: functional, cell-based
T4 sequence (whole entry): T1 sequence (P29275 whole entry)

[6] = biological target: T5, Adenosine receptor A1 (Homo sapiens) (UniProt P30542); assay: as §1
T5 sequence (whole entry): T2 sequence (P30542 whole entry)

[7] = biological target: T6, Adenosine receptor A3 (Homo sapiens) (UniProt P0DMS8); assay: as §2
T6 sequence (whole entry): T3 sequence (P0DMS8 whole entry)

[8] = organism: Homo sapiens; assay: Selectivity ratio of Ki for displacement of [3H]CCPA from recombinant human A1 receptor expressed in CHO cell membranes to displacement of [3H]HEMADO from recombinant human A3 receptor expressed in CHO cell membranes
[9] = organism: Homo sapiens; assay: Selectivity ratio of Ki for displacement of [3H]NECA from recombinant human A2A receptor expressed in CHO cell membranes to displacement of [3H]HEMADO from recombinant human A3 receptor expressed in CHO cell membranes

| Compound | Ki [1] [µM] | Ki [2] [µM] | Ki [3] [µM] | Ki [4] [µM] | inhibition [5] | inhibition [6] | inhibition [7] | Ratio Ki [8] | Ratio Ki [9] |
| --- | --- | --- | --- | --- | --- | --- | --- | --- | --- |
| Cc1ccc(-n2c(C(=O)c3sc(N4CCOCC4)nc3-c3ccccc3)cnc2N)cc1 | > 10 | > 100 | 17.8 | 34 |  |  |  |  |  |
| COc1ccc(-n2c(C(=O)c3sc(N4CCOCC4)nc3-c3ccccc3)cnc2N)cc1 | > 10 | > 100 | 13 | > 100 |  |  |  |  |  |
| Nc1ncc(C(=O)c2ccc(Cl)cc2)n1-c1ccc(F)c(Cl)c1 |  |  |  |  | inactive | inactive | Active |  |  |
| COc1ccc(C(=O)c2cnc(N)n2-c2ccc(F)cc2)cc1 |  |  |  |  | inactive | inactive | inactive |  |  |
| Cc1ccc(C(=O)c2cnc(N)n2-c2ccc(F)cc2)cc1 |  |  |  |  | inactive | inactive | inactive |  |  |
| Nc1ncc(C(=O)c2ccncc2)n1-c1ccc(Cl)cc1 |  |  |  |  | inactive | inactive | Active |  |  |
| Cc1nc(Nc2ccccc2)sc1C(=O)c1cnc(N)n1-c1ccc(F)cc1 | > 10 | 39.2 | 0.19 | 8.04 |  |  |  | 200 | 40 |
| Cc1ccc(C(=O)c2cnc(N)n2-c2ccccc2Cl)cc1 |  |  |  |  | inactive | inactive | Active |  |  |
| COc1ccc(-n2c(C(=O)c3sc(Nc4ccc(Cl)cc4)nc3C)cnc2N)cc1 | > 10 | 33.3 | 1.6 | 10.3 |  |  |  |  |  |
| CS(=O)(=O)c1ccc(C(=O)c2cnc(N)n2-c2ccccc2)cc1 |  |  |  |  | inactive | inactive | Active |  |  |
| Nc1ncc(C(=O)c2ccc(Cl)cc2)n1-c1ccc(C(F)(F)F)cc1 |  |  |  |  | inactive | inactive | Active |  |  |
| Cc1ccc(C(=O)c2cnc(N)n2-c2cccc(Cl)c2)cc1 |  |  |  |  | inactive | inactive | Active |  |  |
| COc1ccc(-n2c(C(=O)c3sc(Nc4ccccc4)nc3-c3ccccc3)cnc2N)cc1 | > 10 | 3.67 | 0.326 | 8.84 |  |  |  |  |  |
| COc1ccc(-n2c(C(=O)c3sc(Nc4ccccc4)nc3C)cnc2N)cc1 | > 10 | 48.6 | 0.574 | 13.4 |  |  |  | 20 to 40 | 20 to 40 |
| Cc1nc(Nc2ccc(Cl)cc2)sc1C(=O)c1cnc(N)n1-c1ccc(F)cc1 | > 10 | 19.8 | 0.871 | 13 |  |  |  |  |  |
| CN(C)c1nc(NC(=O)c2ccccc2)sc1C(=O)c1cnc(N)n1-c1ccc(C(F)(F)F)cc1 | > 10 | 19.7 | 4.92 | 16.7 |  |  |  |  |  |
| Nc1ncc(C(=O)c2ccc(Cl)cc2)n1-c1ccc(F)cc1 |  |  |  |  | inactive | inactive | inactive |  |  |
| Cc1ccc(Nc2nc(C)c(C(=O)c3cnc(N)n3-c3ccc(F)cc3)s2)cc1 | > 10 | 37.5 | 0.487 | 12.4 |  |  |  | 20 to 40 | 20 to 40 |
| Nc1ncc(C(=O)c2sc(Nc3ccccc3)nc2-c2ccccc2)n1-c1ccc(F)cc1 | > 10 | 6.71 | 0.305 | 7.41 |  |  |  | 20 to 40 | 20 to 40 |
| Cc1ccc(C(=O)c2cnc(N)n2-c2ccc(Cl)cc2)cc1 |  |  |  |  | inactive | inactive | inactive |  |  |
| Nc1ncc(C(=O)c2ccncc2)n1-c1ccc(F)cc1 |  |  |  |  | inactive | inactive |  |  |  |
| Nc1ncc(C(=O)c2ccncc2)n1-c1ccc(C(F)(F)F)cc1 |  |  |  |  | inactive | inactive |  |  |  |
| CN(C)c1nc(NC(=O)c2ccccc2)sc1C(=O)c1cnc(N)n1-c1ccc(Cl)cc1 | > 10 | 25.4 | 4.32 | 11.8 |  |  |  |  |  |
| Cc1nc(Nc2ccccc2)sc1C(=O)c1cnc(N)n1-c1ccc(Cl)cc1 | > 10 | 33.5 | 0.802 | 11.2 |  |  |  |  |  |
